Measured values published in ChEMBL document CHEMBL1201862, “PubChem BioAssay data set” (2004).
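Five concentrations, 48 hours, 96-well plates. GI50: concentration for 50% inhibition of growth.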 Calls of active or inactive are those of the source. No stated cut-off is given here; in the data, active = GI50 up to about 1.1 µM and inactive = higher.

Assays:
Experiment in all cases: growth of human tumour cells (NCI), 48 h
HOP-62 = tested on: HOP-62
KM-20L2 = tested on: KM-20L2
SF-268 = tested on: SF-268
CAKI-1 = tested on: CAKI-1
NCI-H226 = tested on: NCI-H226
RXF 393 = tested on: RXF 393
HCT-15 = tested on: HCT-15
DMS-273 = tested on: DMS-273
HCC 2998 = tested on: HCC 2998
EKVX = tested on: EKVX
SK-MEL-28 = tested on: SK-MEL-28
DLD-1 = tested on: DLD-1
SNB-19 = tested on: SNB-19
M19-MEL = tested on: M19-MEL
SK-MEL-5 = tested on: SK-MEL-5
MOLT-4 = tested on: MOLT-4
SW-620 = tested on: SW-620
UACC-62 = tested on: UACC-62
A549 = tested on: A549
SNB-78 = tested on: SNB-78
NCI-H522 = tested on: NCI-H522
UACC-257 = tested on: UACC-257
SR = tested on: SR
TK-10 = tested on: TK-10
NCI-H460 = tested on: NCI-H460
NCI-H23 = tested on: NCI-H23
CCRF-CEM = tested on: CCRF-CEM
HOP-18 = tested on: HOP-18
COLO 205 = tested on: COLO 205
K562 = tested on: K562
786-0 = tested on: 786-0
DMS-114 = tested on: DMS-114
HT-29 = tested on: HT-29
SNB-75 = tested on: SNB-75
OVCAR-8 = tested on: OVCAR-8
SF-295 = tested on: SF-295
U-251 = tested on: U-251
KM12 = tested on: KM12
RPMI-8226 = tested on: RPMI-8226
Malme-3M = tested on: Malme-3M
LXFL 529 = tested on: LXFL 529
OVCAR-5 = tested on: OVCAR-5
SN12C = tested on: SN12C
OVCAR-4 = tested on: OVCAR-4
SK-OV-3 = tested on: SK-OV-3
HOP-92 = tested on: HOP-92
M14 = tested on: M14
SF-539 = tested on: SF-539
SK-MEL-2 = tested on: SK-MEL-2
IGROV-1 = tested on: IGROV-1
HCT-116 = tested on: HCT-116
LOX IMVI = tested on: LOX IMVI
ACHN = tested on: ACHN
HL-60 = tested on: HL-60
UO-31 = tested on: UO-31
A498 = tested on: A498
XF498 = tested on: XF498

## Cc1cccc(C(C)(C)C)c1NC(=O)C(=O)C(c1cnc2ccccc2n1)[N+](=O)[O-] (stereo not drawn)
HOP-62
  GI50: > 100 µM (inactive)
KM-20L2
  GI50: > 100 µM (inactive)
SF-268
  GI50: > 100 µM (inactive)
CAKI-1
  GI50: > 100 µM (inactive)
NCI-H226
  GI50: > 100 µM (inactive)
RXF 393
  GI50: > 100 µM (inactive)
HCT-15
  GI50: > 100 µM
DMS-273
  GI50: > 100 µM (inactive)
HCC 2998
  GI50: > 100 µM (inactive)
EKVX
  GI50: > 100 µM (inactive)
SK-MEL-28
  GI50: > 100 µM (inactive)
DLD-1
  GI50: > 100 µM (inactive)
SNB-19
  GI50: > 100 µM (inactive)
M19-MEL
  GI50: > 100 µM (inactive)
SK-MEL-5
  GI50: > 100 µM (inactive)
MOLT-4
  GI50: 58.1 µM (inactive)
SW-620
  GI50: > 100 µM (inactive)
UACC-62
  GI50: > 100 µM (inactive)
A549
  GI50: > 100 µM (inactive)
SNB-78
  GI50: > 100 µM (inactive)
NCI-H522
  GI50: 38.5 µM (inactive)
UACC-257
  GI50: > 100 µM (inactive)
SR
  GI50: > 100 µM (inactive)
TK-10
  GI50: > 100 µM (inactive)
NCI-H460
  GI50: 62.2 µM (inactive)
NCI-H23
  GI50: > 100 µM (inactive)
CCRF-CEM
  GI50: 32.1 µM (inactive)
HOP-18
  GI50: > 100 µM (inactive)
COLO 205
  GI50: > 100 µM (inactive)
K562
  GI50: > 100 µM (inactive)
786-0
  GI50: > 100 µM (inactive)
DMS-114
  GI50: > 100 µM (inactive)
HT-29
  GI50: > 100 µM (inactive)
SNB-75
  GI50: > 100 µM (inactive)
OVCAR-8
  GI50: > 100 µM (inactive)
SF-295
  GI50: > 100 µM (inactive)
U-251
  GI50: > 100 µM (inactive)
KM12
  GI50: > 100 µM (inactive)
RPMI-8226
  GI50: 60.3 µM (inactive)
Malme-3M
  GI50: > 100 µM (inactive)
LXFL 529
  GI50: > 100 µM (inactive)
OVCAR-5
  GI50: > 100 µM (inactive)
SN12C
  GI50: > 100 µM (inactive)
OVCAR-4
  GI50: > 100 µM (inactive)
SK-OV-3
  GI50: > 100 µM (inactive)
HOP-92
  GI50: > 100 µM (inactive)
M14
  GI50: > 100 µM (inactive)
SF-539
  GI50: > 100 µM (inactive)
SK-MEL-2
  GI50: > 100 µM (inactive)
IGROV-1
  GI50: > 100 µM (inactive)
HCT-116
  GI50: > 100 µM (inactive)
LOX IMVI
  GI50: > 100 µM (inactive)
ACHN
  GI50: > 100 µM (inactive)
HL-60
  GI50: 65.3 µM (inactive)
UO-31
  GI50: > 100 µM (inactive)
A498
  GI50: > 100 µM (inactive)
XF498
  GI50: > 100 µM (inactive)

## CN(C)c1n/c(=N/c2ncn[nH]2)ss1
HOP-62
  GI50: > 100 µM (inactive)
KM-20L2
  GI50: > 100 µM (inactive)
SF-268
  GI50: > 100 µM (inactive)
CAKI-1
  GI50: > 100 µM (inactive)
NCI-H226
  GI50: > 100 µM (inactive)
RXF 393
  GI50: > 100 µM (inactive)
HCT-15
  GI50: > 100 µM
DMS-273
  GI50: > 100 µM (inactive)
HCC 2998
  GI50: > 100 µM (inactive)
EKVX
  GI50: > 100 µM (inactive)
SK-MEL-28
  GI50: > 100 µM (inactive)
DLD-1
  GI50: > 100 µM (inactive)
SNB-19
  GI50: > 100 µM (inactive)
M19-MEL
  GI50: > 100 µM (inactive)
SK-MEL-5
  GI50: > 100 µM (inactive)
MOLT-4
  GI50: > 100 µM (inactive)
SW-620
  GI50: > 100 µM (inactive)
UACC-62
  GI50: > 100 µM (inactive)
A549
  GI50: > 100 µM (inactive)
SNB-78
  GI50: > 100 µM (inactive)
NCI-H522
  GI50: > 100 µM (inactive)
UACC-257
  GI50: > 100 µM (inactive)
SR
  GI50: > 100 µM (inactive)
TK-10
  GI50: > 100 µM (inactive)
NCI-H460
  GI50: > 100 µM (inactive)
NCI-H23
  GI50: > 100 µM (inactive)
CCRF-CEM
  GI50: > 100 µM (inactive)
HOP-18
  GI50: > 100 µM (inactive)
K562
  GI50: > 100 µM (inactive)
786-0
  GI50: > 100 µM (inactive)
DMS-114
  GI50: > 100 µM (inactive)
HT-29
  GI50: > 100 µM (inactive)
SNB-75
  GI50: > 100 µM (inactive)
OVCAR-8
  GI50: > 100 µM (inactive)
SF-295
  GI50: > 100 µM (inactive)
U-251
  GI50: > 100 µM (inactive)
KM12
  GI50: > 100 µM (inactive)
RPMI-8226
  GI50: > 100 µM (inactive)
Malme-3M
  GI50: > 100 µM (inactive)
LXFL 529
  GI50: > 100 µM (inactive)
OVCAR-5
  GI50: > 100 µM (inactive)
SN12C
  GI50: > 100 µM (inactive)
OVCAR-4
  GI50: > 100 µM (inactive)
SK-OV-3
  GI50: > 100 µM (inactive)
HOP-92
  GI50: > 100 µM (inactive)
M14
  GI50: > 100 µM (inactive)
SF-539
  GI50: > 100 µM (inactive)
SK-MEL-2
  GI50: > 100 µM (inactive)
IGROV-1
  GI50: > 100 µM (inactive)
HCT-116
  GI50: > 100 µM (inactive)
LOX IMVI
  GI50: > 100 µM (inactive)
ACHN
  GI50: > 100 µM (inactive)
HL-60
  GI50: > 100 µM (inactive)
UO-31
  GI50: > 100 µM (inactive)
A498
  GI50: > 100 µM (inactive)
XF498
  GI50: > 100 µM (inactive)
